Data: patent publication US20080171740A1, “Chemical Compounds” (SMITHKLINE BEECHAM CORPORATION, priority 2004, published 2008)
Like-named read-outs stand apart in the source and are kept apart here.

What was measured:
Format in all cases: cell-based
CXCR4 receptor = biological target: T1, CXCR4 receptor (Homo sapiens, UniProt P61073); assay: Functional FLIPR assay (block of SDF-1 alpha induced [Ca2+]i change); settings: HEK-293 cells with human CXCR4 BacMam and Gqi5 BacMam; antagonism of SDF-1 alpha; read-out: Functional assay (pIC50) (converted)
T1 construct: expressed in transfected cells; host or cells: HEK-293 cells (stably expressing human macrophage scavenging receptor) transduced with human CXCR4 BacMam and Gqi5 BacMam
Experimental: Human embryonic kidney (HEK-293) cells were maintained and harvested as described above. Cells were plated in 96-well, black clear bottom, poly-lysine coated plates at a concentration of 40,000 cells per well in a final volume of 100 ul containing human CXCR4 BacMam (MOI=25) and Gqi5 BacMam (MOI=12.5). The cells were incubated at 37° C., 5% CO2, 95% humidity for 24 h to allow for protein expression.
After the required incubation time the cells were washed once with 50 ul of fresh serum-free DMEM/F12 media containing probenicid. 50 ul of dye solution was then added to the cells (Calcium Plus Assay Kit Dye; Molecular Devices) was dissolved in 200 ml of the above probenicid/BSA containing media and incubated for 1 h. Cell plates were transferred to a Fluorometric Imaging Plate Reader (FLIPR). Upon addition the effect of the compounds on the change in [Ca^2+]i was examined to determine if the compounds were agonists or antagonists (ability to block SDF-1 alpha activity) at the CXCR4 receptor. IC50 values are determined and pKb values are calculated using the Leff and Dougall equation: KB=IC50/((2+([agonist]/EC50̂b)̂1/b -1) Where IC50 is that defined by the antagonist concentration-response curve [agonist] is the EC80 concentration of agonist used EC50 is that defined by the agonist concentration-response curve b is the slope of the agonist concentration-response curve.

[1] = test system: HIV-1 gp160 (HXB2 strain) mediated fusion with HOS (hCXCR4/hCCR5/hCD4/pHIV-LTR-luciferase) cells; assay: Cell/cell fusion assay (HEK-293 expressing HIV-1 tat, rev, gp160 with HOS hCXCR4/hCCR5/hCD4/pHIV-LTR-luciferase cells); settings: Homo sapiens, HEK293; luciferase readout after 24 h; read-out: Fusion assay (pIC50) (converted)
From the text: The complete coding sequences of HIV-1 tat (GenBank Accession No. X07861) and rev (GenBank Accession No. M34378) were cloned into pcDNA3.1 expression vectors containing G418 and hygromycin resistance genes, respectively. The complete coding sequence of the HIV-1 (HXB2 strain) gp160 envelope gene (nucleotide bases 6225-8795 of GenBank Accession No. K03455) was cloned into plasmid pCRII-TOPO. The three HIV genes were additionally inserted into the baculovirus shuttle vector, pFastBacMam1, under the transcriptional control of the CMV promoter. A construction of the pHIV-I LTR containing mutated NFkB sequences linked to the luciferase reporter gene was prepared by digesting pcDNA3.1, containing the G418 resistance gene, with Nru I and Bam HI to remove the CMV promoter. LTR-luc was then cloned into the Nru I/Bam HI sites of the plasmid vector. Plasmid preparations were performed after the plasmids were amplified in Escherichia coli strain DH5-alpha. The fidelity of the inserted sequences was confirmed by double-strand nucleotide sequencing using an ABI Prism Model 377 automated sequencer.
Recombinant BacMam baculoviruses were constructed from pFastBacMam shuttle plasmids by using the bacterial cell-based Bac-to-Bac system. Viruses were propagated in Sf9 (Spodoptera frugiperda) cells cultured in Hink's TNM-FH Insect media supplemented with 10% (v/v) fetal bovine serum and 0.1% (v/v) pluronic F-68 according to established protocols.
Human osteosarcoma (HOS) cells that naturally express human CXCR4 were transfected with human CCR5, human CD4 and the pHIV-LTR-luciferase plasmid using FuGENE 6 transfection reagent. Single cells were isolated and grown under selection condition in order to generate a stable HOS (hCXCR4/hCCR5/hCD4/pHIV-LTR-luciferase) clonal cell line. The cells were maintained in Dulbeccos modified Eagles media supplemented with 10% fetal calf serum (FCS), G418 (400 ug/ml), puromycin (1 ug/ml), mycophenolic acid (40 ug/ml), xanthine (250 ug/ml) and hypoxanthine (13.5 ug/ml) to maintain a selection pressure for cells expressing the LTR-luciferase, hCCR5 and hCD4, respectively. Human embryonic kidney (HEK-293) cells stably transfected to express the human macrophage scavenging receptor (Class A, type 1; GenBank Accession No. D90187), were maintained in DMEM/F-12 media (1:1) supplemented with 10% FCS and 1.5 ug/ml puromycin. The expression of this receptor by the HEK-293 cells enhances their ability to stick to tissue culture treated plasticware.
HEK-293 cells were harvested using enzyme-free cell dissociation buffer. The cells were resuspended in DMEM/F-12 media supplemented with 10% FCS and 1.5 ug/ml and counted. Tranductions were performed by direct addition of BacMam baculovirus containing insect cell media to cells. The cells were simultaneously transduced with BacMam baculovirus expressing HIV-1 tat, HIV-1 rev and HIV-1 gp160 (from the HXB2 HIV strain). Routinely an MOI of 10 of each virus was added to the media containing the cells. 2 mM butyric acid was also added to the cells at this stage to increase protein expression in transduced cells. The cells were subsequently mixed and seeded into a flask at 30 million cells per T225. The cells were incubated at 37° C., 5% CO2, 95% humidity for 24 h to allow for protein expression.
HEK and HOS cells were harvested in DMEM/F-12 media containing 2% FCS and DMEM media containing 2% FCS, respectively, with no selection agents added. Compounds were plated as 1 ul spots in 100% DMSO on a 96-well CulturPlate plates. HOS cells (50 ul) were added first to the wells, followed immediately by the HEK cells (50 ul). The final concentration of each cell type was 20,000 cells per well. Following these additions, the cells were returned to a tissue culture incubator (37° C.; 5% CO2/95% air) for an additional 24 h.
Following the 24 h incubation, total cellular luciferase activity was measured using the LucLite Plus assay kit (Packard, Meridien, Conn.). […]

[2] = Compound cytotoxicity in the absence of virus (CellTiter-Glo); settings: human; non-infected HOS cultures, cell viability; read-out: Cytotox (pIC50) (converted)
Experimental: (§1) Compounds were profiled against two HIV-1 viruses, the M-tropic (CCR5 utilizing) Ba-L strain and the T-tropic (CXCR4 utilizing) IIIB strain. Both viruses were propagated in human peripheral blood lymphocytes. Compounds were tested for there ability to block infection of the HOS cell line (expressing hCXCR4/hCCR5/hCD4/pHIV-LTR-luciferase) by either HIV-1 Ba-L or HIV-1 IIIB. Compound cytotoxicity was also examined in the absence of virus addition.
(§2) HOS cells (expressing hCXCR4/hCCR5/hCD4/pHIV-LTR-luciferase) were harvested and diluted in Dulbeccos modified Eagles media supplemented with 2% FCS and non-essential amino acid to a concentration of 60,000 cells/ml. The cells were plated into 96-well plates (100 ul per well) and the plates were placed in a tissue culture incubator (37° C.; 5% CO2/95% air) for a period of 24 h.
(§3) Subsequently, 50 ul of the desired drug solution (4 times the final concentration) was added to each well and the plates were returned to the tissue culture incubator (37° C.; 5% CO2/95% air) for 1 h. Following this incubation 50 ul of diluted virus was added to each well (approximately 2 million RLU per well of virus). The plates were returned to the tissue culture incubator (37° C.; 5% CO2/95% air) and were incubated for a further 96 h.
(§4) Following this incubation the endpoint for the virally infected cultures was quantified following addition of Steady-Glo Luciferase assay system reagent (Promega, Madison, Wis.). Cell viability or non-infected cultures was measured using a CellTiter-Glo luminescent cell viability assay system (Promega, Madison, Wis.). All luminescent readouts are performed on a Topcount luminescence detector (Packard, Meridien, Conn.).

[3] = test system: HIV-1 IIIB strain, T-tropic (CXCR4 utilizing); assay: HOS HIV-1 infectivity assay
Experimental: as §1, §2, §3, §4

[4] = Human immunodeficiency virus 1, IIIB, HOS HIV anti-infectivity assay, strain not named in Table 2, read-out: Activity Level
[5] = Human immunodeficiency virus 1, HOS cells, HIV-1 IIIB, 96 h, luciferase, read-out: HOS (3B)
[6] = Human immunodeficiency virus 1, IIIB, HOS, 96 h, read-out: HOS (3B) (μM)
[7] = Human immunodeficiency virus 1, IIIB, read-out: Activity Level

T1 sequence (P61073 whole entry): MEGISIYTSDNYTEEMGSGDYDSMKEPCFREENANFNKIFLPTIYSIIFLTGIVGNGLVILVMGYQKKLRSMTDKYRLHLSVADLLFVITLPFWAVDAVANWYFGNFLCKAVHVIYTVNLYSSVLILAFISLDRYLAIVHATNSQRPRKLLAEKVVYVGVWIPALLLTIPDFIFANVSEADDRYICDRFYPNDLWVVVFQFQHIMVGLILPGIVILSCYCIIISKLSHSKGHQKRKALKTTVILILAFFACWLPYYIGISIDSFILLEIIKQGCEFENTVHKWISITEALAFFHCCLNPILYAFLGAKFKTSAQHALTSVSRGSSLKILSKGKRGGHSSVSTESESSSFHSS

Row | Compound | IC50 (CXCR4 receptor) [nM] | IC50 [1] [nM] | IC50 at 96 h [2] [nM] | IC50 [3, 4] [µM] | IC50 [3, 5] [µM] | IC50 [3, 6] [µM] | IC50 [3, 7] [µM]
1 | CN1CCN(c2cccc3nc(CN(CCCCN)C4CCCc5cccnc54)cn23)CC1 (stereo not drawn) [Example 24, N-{[5-(4-Methyl-1-piperazinyl)imidazo[1,2-a]pyridin-2-yl]methyl}-N-(5,6,7,8-tetrahydro-8-quinolinyl)-1,4-butanediamine] | 41.7 | 4.9 | > 100000 | < 0.1 | 0.0036 |  | 
2 | NCCCCN(Cc1cn2ccccc2n1)C1CCCc2cccnc21 (stereo not drawn) [Example 1, N-(Imidazo[1,2-a]pyridin-2-ylmethyl)-N-(5,6,7,8-tetrahydro-8-quinolinyl)-1,4-butanediamine] | 33.9 | 79.4 | > 100000 | < 0.1 | 0.042 |  | 
3 | Cc1cccn2cc(CN(CCCCN)C3CCCc4cccnc43)nc12 (stereo not drawn) [Example 2, N-[(8-Methylimidazo[1,2-a]pyridin-2-yl)methyl]-N-(5,6,7,8-tetrahydro-8-quinolinyl)-1,4-butanediamine] | 53.7 | 324 | > 100000 |  |  | 0.023 | < 0.1
4 | Cc1c(Br)ccc2nc(CN(CCCCN)C3CCCc4cccnc43)cn12 (stereo not drawn) [Example 18, N-[(6-Bromo-5-methylimidazo[1,2-a]pyridin-2-yl)methyl]-N-(5,6,7,8-tetrahydro-8-quinolinyl)-1,4-butanediamine] | 30.9 | 155 | > 100000 | < 0.1 | 0.088 |  | 
5 | NCCCCN(Cc1cn2cc(F)ccc2n1)C1CCCc2cccnc21 (stereo not drawn) [Example 11, N-[(6-Fluoroimidazo[1,2-a]pyridin-2-yl)methyl]-N-(5,6,7,8-tetrahydro-8-quinolinyl)-1,4-butanediamine] | 17 | 63.1 | > 100000 | < 0.1 | 0.033 |  | 
6 | NCCCCN(Cc1cn2cc(Cl)cc(Cl)c2n1)C1CCCc2cccnc21 (stereo not drawn) [Example 16, N-[(6,8-Dichloroimidazo[1,2-a]pyridin-2-yl)methyl]-N-(5,6,7,8-tetrahydro-8-quinolinyl)-1,4-butanediamine] | 49 | 1290 | > 100000 | 0.1 to 0.5 | 0.133 |  | 
7 | Cc1cc(Br)c2nc(CN(CCCCN)C3CCCc4cccnc43)cn2c1 (stereo not drawn) [Example 20, N-[(8-Bromo-6-methylimidazo[1,2-a]pyridin-2-yl)methyl]-N-(5,6,7,8-tetrahydro-8-quinolinyl)-1,4-butanediamine] | 135 | 2290 | > 100000 | 0.1 to 0.5 | 0.31 |  | 
8 | NCCCCN(Cc1cn2c(N3CCOCC3)cccc2n1)C1CCCc2cccnc21 (stereo not drawn) [Example 23, N-{[5-(4-Morpholinyl)imidazo[1,2-a]pyridin-2-yl]methyl}-N-(5,6,7,8-tetrahydro-8-quinolinyl)-1,4-butanediamine] | 158 | 324 | > 100000 | < 0.1 | 0.077 |  | 
9 | Cc1ccc2nc(CN(CCCCN)C3CCCc4cccnc43)cn2c1 (stereo not drawn) [Example 4, N-[(6-Methylimidazo[1,2-a]pyridin-2-yl)methyl]-N-(5,6,7,8-tetrahydro-8-quinolinyl)-1,4-butanediamine] | 52.5 | 97.7 | > 100000 | < 0.1 | 0.057 |  | 
10 | COc1cccc2nc(CN(CCCCN)C3CCCc4cccnc43)cn12 (stereo not drawn) [Example 25, N-{[5-(Methyloxy)imidazo[1,2-a]pyridin-2-yl]methyl}-N-(5,6,7,8-tetrahydro-8-quinolinyl)-1,4-butanediamine] | 10.2 | 123 | > 100000 | < 0.1 | 0.015 |  | 
11 | NCCCCN(Cc1cn2cc(C(F)(F)F)cc(Cl)c2n1)C1CCCc2cccnc21 (stereo not drawn) [Example 17, N-{[8-Chloro-6-(trifluoromethyl)imidazo[1,2-a]pyridin-2-yl]methyl}-N-(5,6,7,8-tetrahydro-8-quinolinyl)-1,4-butanediamine] | 347 | 3890 | > 100000 |  |  | 0.3 | 0.1 to 0.5
12 | Cc1cccc2nc(CN(CCCCN)C3CCCc4cccnc43)cn12 (stereo not drawn) [Example 5, N-[(5-Methylimidazo[1,2-a]pyridin-2-yl)methyl]-N-(5,6,7,8-tetrahydro-8-quinolinyl)-1,4-butanediamine] | 12 | 39.8 | > 100000 | < 0.1 | 0.017 |  | 
